According to PubChem BioAssay (NCI):
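These data come from cells grown in 96-well plates and exposed to compound for 48 hours at five concentrations. The concentration for full growth arrest is given as TGI.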

Tests used:
Assay in all cases: NCI-60 cell line screen, 48 h
786-0 renal = tested on: 786-0 renal
A498 renal = tested on: A498 renal
A549 NSCLC = tested on: A549 NSCLC
ACHN renal = tested on: ACHN renal
COLO 205 colon = tested on: COLO 205 colon
DLD-1 colon = tested on: DLD-1 colon
DMS 114 small cell lung = tested on: DMS 114 small cell lung
EKVX NSCLC = tested on: EKVX NSCLC
HCC-2998 colon = tested on: HCC-2998 colon
HCT-116 colon = tested on: HCT-116 colon
HCT-15 colon = tested on: HCT-15 colon
HL-60(TB) leukemia = tested on: HL-60(TB) leukemia
HOP-62 NSCLC = tested on: HOP-62 NSCLC
HOP-92 NSCLC = tested on: HOP-92 NSCLC
HT29 colon = tested on: HT29 colon
IGROV1 ovarian = tested on: IGROV1 ovarian
K-562 leukemia = tested on: K-562 leukemia
KM12 colon = tested on: KM12 colon
KM20L2 colon = tested on: KM20L2 colon
LXFL 529 NSCLC = tested on: LXFL 529 NSCLC
M14 melanoma = tested on: M14 melanoma
M19-MEL melanoma = tested on: M19-MEL melanoma
MALME-3M melanoma = tested on: MALME-3M melanoma
NCI-H226 lung = tested on: NCI-H226 lung
NCI-H23 lung = tested on: NCI-H23 lung
NCI-H460 lung = tested on: NCI-H460 lung
OVCAR-3 ovarian = tested on: OVCAR-3 ovarian
OVCAR-5 ovarian = tested on: OVCAR-5 ovarian
OVCAR-8 ovarian = tested on: OVCAR-8 ovarian
RPMI-8226 leukemia = tested on: RPMI-8226 leukemia
SN12C renal = tested on: SN12C renal
SNB-19 CNS = tested on: SNB-19 CNS
SNB-75 CNS = tested on: SNB-75 CNS
SNB-78 CNS = tested on: SNB-78 CNS
SW-620 colon = tested on: SW-620 colon
U251 CNS = tested on: U251 CNS
UACC-62 melanoma = tested on: UACC-62 melanoma
UO-31 renal = tested on: UO-31 renal

Which results are given for `COc1cccc(C2CC(C)=Nc3c(ccc4c3C(=O)c3ccccc3C4=O)N2)c1O` (stereo not drawn)?
TGI (786-0 renal): > 100 µM; TGI (A498 renal): > 100 µM; TGI (A549 NSCLC): > 100 µM; TGI (ACHN renal): > 100 µM; TGI (COLO 205 colon): > 100 µM; TGI (DLD-1 colon): > 100 µM; TGI (DMS 114 small cell lung): > 100 µM; TGI (EKVX NSCLC): > 100 µM; TGI (HCC-2998 colon): > 100 µM; TGI (HCT-116 colon): > 100 µM; TGI (HCT-15 colon): > 100 µM; TGI (HL-60(TB) leukemia): > 100 µM; TGI (HOP-62 NSCLC): > 100 µM; TGI (HOP-92 NSCLC): > 100 µM; TGI (HT29 colon): > 100 µM; TGI (IGROV1 ovarian): > 100 µM; TGI (K-562 leukemia): > 100 µM; TGI (KM12 colon): > 100 µM; TGI (KM20L2 colon): > 100 µM; TGI (LXFL 529 NSCLC): > 100 µM; TGI (M14 melanoma): > 100 µM; TGI (M19-MEL melanoma): > 100 µM; TGI (MALME-3M melanoma): > 100 µM; TGI (NCI-H226 lung): > 100 µM; TGI (NCI-H23 lung): > 100 µM; TGI (NCI-H460 lung): > 100 µM; TGI (OVCAR-3 ovarian): 95.1 µM; TGI (OVCAR-5 ovarian): > 100 µM; TGI (OVCAR-8 ovarian): > 100 µM; TGI (RPMI-8226 leukemia): > 100 µM; TGI (SN12C renal): > 100 µM; TGI (SNB-19 CNS): > 100 µM; TGI (SNB-75 CNS): > 100 µM; TGI (SNB-78 CNS): > 100 µM; TGI (SW-620 colon): > 100 µM; TGI (U251 CNS): > 100 µM; TGI (UACC-62 melanoma): > 100 µM; TGI (UO-31 renal): > 100 µM
